Assay results: patent US20190059429A1, “SALT COMPOSITION INCLUDING SERINE” (NESTEC S.A., priority 2016, published 2019)
Values belong to the molecule of their own block, whether it stands above or below them.

Tests used:
[1] = Dissolution kinetics in water by online refractometry; type: physicochemical; conditions: 60 mL water, stirred 500 rpm, room temperature, particle size 100-200 μm, refractive index
Description: FIG. 1 Dissolution kinetics. The change in refractive index (n) was measured by online-refractometry in water over the time period 0 to 50 seconds. 0.56 g of pure NaCl (triangle); 2.58 g of (L-serine)2.sodium chloride co-crystals (diamond); a physical mixture of 2.02 g L-serine and 0.56 g NaCl (cross); and a 2.02 g of pure L-serine (star) were each added to 60 mL of water stirred (500 rpm) at room temperature. The particle size of the respective solids was standardized in the range 100-200 μm.
The rate of dissolution of a solid in a liquid may be measured by refractometry. A refractometer measures the extent to which light is refracted when it moves from air into a sample, thereby allowing the refractive index (n) of the sample to be measured. […] Accordingly, by monitoring the change in refractive index over time, the kinetic rate of dissolution of a solid can be determined. So that independent measurements of dissolution rate can be compared, the refractive index values may be normalised by expression as a percentage of the maximal value recorded in a particular experiment.
The dissolution behaviour of (L-serine)2.sodium co-crystals obtained by direct crystallisation from a saturated solution (Example 2) were tested by refractometry. In this experiment, test samples were added to 60 mL of water, and the extent of dissolution was measured while stirring at 500 rpm. […]

[2] = system: trained panellists; assay: Sensory evaluation of tablets by 11 trained panellists; type: in vivo; conditions: tablets 123.7 mg
Description: Bars coloured black denote a significant difference in a particular taste/sensory characteristic. Unshaded bars denote that there is no significant difference in the characteristic. A positive number represents an increased sensory response of the co-crystal compared to the physical mixture.
Tablets for sensory evaluation were prepared using a Romaco Kilian Styl'One single-stroke tablet press. […] The tablets were prepared with three compressions of 300 ms and an interval of 200 ms.
Each of the panellists received a tray with two tablets presented on plastic plates coded with random 3-digit numbers. The tablets had to be crunched with the front teeth and kept in mouth to dissolve slowly (method 1). Alternatively, tablets could be crunched with the front teeth and chewed constantly in the mouth until complete dissolution occurred (method 2).
Afterwards the panellists were asked to rate the taste of the tablets in respect of the following 12 categories: upfront saltiness (1), overall saltiness (2), sweetness (3), sourness (4), umami (5), friable (6), melting (7), overall persistence (8), saltiness persistence (9), sweetness persistence (10), sourness persistence (11), and tingling (12).

time to reach 90% dissolution [1]: around 25 seconds
SMILES: N[C@@H](CO)C(=O)O.N[C@@H](CO)C(=O)O.[Cl-].[Na+] [(L-serine)2.sodium chloride co-crystals, (L-serine)2.sodium chloride]
salty taste perceived, co-crystal tablets vs L-serine/NaCl physical mix tablets ([2]; during and after consumption): significantly more salty | overall saltiness vs physical mix ([2]; FIG. 2): superior | saltiness persistence vs physical mix ([2]; FIG. 2): superior | upfront saltiness vs physical mix ([2]; FIG. 2): superior

SMILES: [Cl-].[Na+] [NaCl, Sodium chloride, reference compound]
time to reach 90% dissolution [1]: around 25 seconds
